From publication PMC9116130 (Biochemical pharmacology, 2020)
Like-named read-outs stand apart in the source and are kept apart here. Where a SMILES comes first, the peptide text is derived from it. Bridges are numbered along the chain shown (N, C = ends).

Legend:
[1] = molecular target: hNaV1.1 (Homo sapiens, UniProt P35498); test: Two-electrode voltage-clamp on Xenopus laevis oocytes expressing NaV1.1
[2] = molecular target: rNaV1.8 (Rattus norvegicus, UniProt Q62968); test: Two-electrode voltage-clamp on Xenopus laevis oocytes expressing NaV1.8; details: for inhibition at 100 µM: read-out: Maximum % inhibition NaV1.8
[3] = molecular target: mNaV1.6 (Mus musculus, UniProt Q9WTU3); test: Two-electrode voltage-clamp on Xenopus laevis oocytes expressing NaV1.6; details: for inhibition at 100 µM: read-out: Maximum % inhibition NaV1.6, peptide at 100 μM
[4] = molecular target: rNaV1.2 (Rattus norvegicus, UniProt P04775); test: Two-electrode voltage-clamp on Xenopus laevis oocytes expressing NaV1.2; details: for inhibition at 100 µM: read-out: Maximum % inhibition NaV1.2, peptide at 100 μM
[5] = molecular target: rNaV1.7 (Rattus norvegicus, UniProt O08562); test: Two-electrode voltage-clamp on Xenopus laevis oocytes expressing NaV1.7
[6] = molecular target: rNaV1.3 (Rattus norvegicus, UniProt P08104); test: Two-electrode voltage-clamp on Xenopus laevis oocytes expressing NaV1.3
[7] = molecular target: hNaV1.5 (Homo sapiens, UniProt Q14524); test: Two-electrode voltage-clamp on Xenopus laevis oocytes expressing NaV1.5; details: for inhibition at 100 µM: read-out: Maximum % inhibition NaV1.5
[8] = molecular target: rNaV1.4 (Rattus norvegicus, UniProt P15390); test: Two-electrode voltage-clamp on Xenopus laevis oocytes expressing NaV1.4; details: for inhibition at 100 µM: read-out: Maximum % inhibition NaV1.4, peptide at 100 μM
Sequence of rNaV1.4 (P15390 whole entry): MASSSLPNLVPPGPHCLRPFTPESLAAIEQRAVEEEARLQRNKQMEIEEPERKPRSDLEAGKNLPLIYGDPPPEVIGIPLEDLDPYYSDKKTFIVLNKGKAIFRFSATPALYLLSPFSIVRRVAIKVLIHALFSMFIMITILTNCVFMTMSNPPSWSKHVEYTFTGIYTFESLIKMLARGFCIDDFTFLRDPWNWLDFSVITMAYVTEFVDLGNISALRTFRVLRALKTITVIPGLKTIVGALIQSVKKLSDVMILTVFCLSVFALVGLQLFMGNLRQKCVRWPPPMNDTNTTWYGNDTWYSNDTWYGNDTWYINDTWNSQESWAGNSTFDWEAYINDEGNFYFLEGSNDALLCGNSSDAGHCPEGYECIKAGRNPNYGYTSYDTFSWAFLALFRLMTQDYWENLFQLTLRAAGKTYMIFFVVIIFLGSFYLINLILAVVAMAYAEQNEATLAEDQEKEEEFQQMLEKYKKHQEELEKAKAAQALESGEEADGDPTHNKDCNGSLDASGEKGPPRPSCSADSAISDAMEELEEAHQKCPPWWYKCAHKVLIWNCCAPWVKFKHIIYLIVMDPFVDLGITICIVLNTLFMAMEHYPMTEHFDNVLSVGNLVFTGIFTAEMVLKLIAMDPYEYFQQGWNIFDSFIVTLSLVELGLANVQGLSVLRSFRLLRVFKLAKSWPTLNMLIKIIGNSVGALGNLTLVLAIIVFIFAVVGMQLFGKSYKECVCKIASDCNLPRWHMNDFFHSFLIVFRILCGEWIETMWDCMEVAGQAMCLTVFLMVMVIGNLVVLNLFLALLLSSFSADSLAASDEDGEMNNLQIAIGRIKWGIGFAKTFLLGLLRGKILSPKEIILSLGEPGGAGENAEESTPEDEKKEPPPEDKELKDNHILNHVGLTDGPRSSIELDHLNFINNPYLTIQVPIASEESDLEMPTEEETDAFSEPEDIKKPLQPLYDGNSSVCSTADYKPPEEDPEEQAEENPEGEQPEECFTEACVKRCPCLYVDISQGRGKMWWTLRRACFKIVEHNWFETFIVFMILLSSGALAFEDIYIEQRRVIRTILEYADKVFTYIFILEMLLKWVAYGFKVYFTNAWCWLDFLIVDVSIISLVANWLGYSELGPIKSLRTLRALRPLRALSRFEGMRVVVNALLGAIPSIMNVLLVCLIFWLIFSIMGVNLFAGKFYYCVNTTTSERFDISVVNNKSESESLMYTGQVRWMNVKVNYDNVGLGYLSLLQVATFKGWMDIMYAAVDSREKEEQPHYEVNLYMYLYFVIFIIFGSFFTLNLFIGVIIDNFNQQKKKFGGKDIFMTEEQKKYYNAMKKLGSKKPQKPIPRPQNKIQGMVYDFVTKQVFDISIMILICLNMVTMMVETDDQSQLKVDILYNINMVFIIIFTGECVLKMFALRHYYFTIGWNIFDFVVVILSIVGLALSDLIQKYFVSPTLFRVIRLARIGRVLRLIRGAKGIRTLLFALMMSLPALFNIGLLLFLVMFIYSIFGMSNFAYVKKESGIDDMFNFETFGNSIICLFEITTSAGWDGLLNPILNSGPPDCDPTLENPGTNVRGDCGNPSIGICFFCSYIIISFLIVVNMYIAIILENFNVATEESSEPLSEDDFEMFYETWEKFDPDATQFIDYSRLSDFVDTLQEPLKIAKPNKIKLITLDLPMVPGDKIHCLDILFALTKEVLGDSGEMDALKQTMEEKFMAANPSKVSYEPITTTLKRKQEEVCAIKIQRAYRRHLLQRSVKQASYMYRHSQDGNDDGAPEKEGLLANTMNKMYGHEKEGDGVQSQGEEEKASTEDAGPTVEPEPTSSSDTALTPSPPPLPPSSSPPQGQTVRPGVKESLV
Sequence of rNaV1.4 (Q00954 19-218, further chain): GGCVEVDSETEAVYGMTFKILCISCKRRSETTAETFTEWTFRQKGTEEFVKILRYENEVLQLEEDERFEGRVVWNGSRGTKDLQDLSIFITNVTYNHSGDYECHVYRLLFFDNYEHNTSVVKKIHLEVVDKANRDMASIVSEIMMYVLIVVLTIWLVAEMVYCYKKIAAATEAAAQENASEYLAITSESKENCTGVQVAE

Sequence of rNaV1.7 (O08562 whole entry): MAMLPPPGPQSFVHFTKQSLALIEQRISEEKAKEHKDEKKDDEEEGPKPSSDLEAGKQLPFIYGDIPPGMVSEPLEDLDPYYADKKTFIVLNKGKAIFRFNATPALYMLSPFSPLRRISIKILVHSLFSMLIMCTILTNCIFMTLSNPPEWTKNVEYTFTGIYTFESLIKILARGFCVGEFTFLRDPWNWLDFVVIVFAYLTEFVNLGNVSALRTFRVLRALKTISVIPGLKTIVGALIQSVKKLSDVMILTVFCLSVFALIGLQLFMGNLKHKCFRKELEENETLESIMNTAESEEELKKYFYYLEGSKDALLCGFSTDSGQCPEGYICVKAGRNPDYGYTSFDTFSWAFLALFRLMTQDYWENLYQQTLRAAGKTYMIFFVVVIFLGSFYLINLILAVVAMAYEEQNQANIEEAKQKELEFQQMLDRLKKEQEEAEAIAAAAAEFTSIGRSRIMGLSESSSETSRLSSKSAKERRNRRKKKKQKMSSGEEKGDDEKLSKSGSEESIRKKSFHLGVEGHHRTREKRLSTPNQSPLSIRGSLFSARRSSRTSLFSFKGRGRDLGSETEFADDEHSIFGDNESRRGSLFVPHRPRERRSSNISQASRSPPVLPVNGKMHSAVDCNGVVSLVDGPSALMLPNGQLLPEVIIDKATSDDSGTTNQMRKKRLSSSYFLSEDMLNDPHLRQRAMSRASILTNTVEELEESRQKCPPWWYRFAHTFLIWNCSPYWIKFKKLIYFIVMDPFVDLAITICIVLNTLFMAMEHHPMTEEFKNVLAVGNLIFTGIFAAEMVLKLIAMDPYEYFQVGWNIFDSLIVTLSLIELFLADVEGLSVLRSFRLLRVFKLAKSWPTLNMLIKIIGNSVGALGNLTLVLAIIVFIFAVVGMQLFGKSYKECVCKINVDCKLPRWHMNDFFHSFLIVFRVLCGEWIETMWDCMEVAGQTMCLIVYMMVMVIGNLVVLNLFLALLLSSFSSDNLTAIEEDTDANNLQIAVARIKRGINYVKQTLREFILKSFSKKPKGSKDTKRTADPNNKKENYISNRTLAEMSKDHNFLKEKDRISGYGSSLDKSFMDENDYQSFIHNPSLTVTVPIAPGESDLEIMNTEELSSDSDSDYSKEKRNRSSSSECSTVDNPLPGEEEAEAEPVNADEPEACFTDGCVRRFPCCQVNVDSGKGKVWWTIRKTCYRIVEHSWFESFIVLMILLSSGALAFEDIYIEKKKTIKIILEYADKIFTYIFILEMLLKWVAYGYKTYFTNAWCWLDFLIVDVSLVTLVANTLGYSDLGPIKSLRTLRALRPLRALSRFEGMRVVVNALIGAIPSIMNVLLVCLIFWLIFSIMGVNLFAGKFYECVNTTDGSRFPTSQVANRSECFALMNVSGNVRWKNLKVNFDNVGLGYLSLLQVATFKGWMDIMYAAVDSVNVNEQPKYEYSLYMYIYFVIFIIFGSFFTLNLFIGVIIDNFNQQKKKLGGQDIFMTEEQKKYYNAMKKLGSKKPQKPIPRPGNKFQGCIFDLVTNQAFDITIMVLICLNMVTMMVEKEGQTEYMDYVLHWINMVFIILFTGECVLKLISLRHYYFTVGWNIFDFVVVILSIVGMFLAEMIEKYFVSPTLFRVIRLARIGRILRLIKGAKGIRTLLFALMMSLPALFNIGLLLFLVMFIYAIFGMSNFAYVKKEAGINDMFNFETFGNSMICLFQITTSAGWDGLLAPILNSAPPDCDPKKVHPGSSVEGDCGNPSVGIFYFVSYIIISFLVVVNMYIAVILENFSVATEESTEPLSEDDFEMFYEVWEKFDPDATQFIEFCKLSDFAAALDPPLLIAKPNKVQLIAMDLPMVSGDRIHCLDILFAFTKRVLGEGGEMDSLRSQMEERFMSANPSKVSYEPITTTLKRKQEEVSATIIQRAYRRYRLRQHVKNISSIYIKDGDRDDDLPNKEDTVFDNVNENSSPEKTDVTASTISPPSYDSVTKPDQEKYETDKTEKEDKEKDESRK
Sequence of rNaV1.7 (Q00954 19-218 partner): as the sequence (Q00954 19-218, further chain) above

Row | SMILES | IC50 [1] [µM] | IC50 [2] [µM] | inhibition at 100 µM [2] [%] | IC50 [3] [µM] | inhibition at 100 µM [3] [%] | IC50 [4] [µM] | inhibition at 100 µM [4] [%] | IC50 [5] [µM] | IC50 [6] [µM] | IC50 [7] [µM] | inhibition at 100 µM [7] [%] | IC50 [8] [µM] | inhibition at 100 µM [8] [%] | IC50 ([3]; read-out: IC50 NaV1.6 (Table 4), n > 5, ±SD) [µM] | Maximum % inhibition NaV1.4 ([8]; peptide at 100 μM, 100 µM) [%]
1 | C[C@@H]1NC(=O)[C@H](Cc2c[nH]c3ccccc23)NC(=O)[C@H](CCCNC(=N)N)NC(=O)[C@H](CCCNC(=N)N)NC(=O)[C@@H](N)CSSC[C@@H](C(N)=O)NC(=O)[C@H](CCCNC(=N)N)NC(=O)[C@H](CC(N)=O)NC(=O)[C@H](Cc2c[nH]c3ccccc23)NC(=O)[C@H](CCCNC(=N)N)NC1=O [PnCS1, CRRWARWNRC ^*] (H-CRRWARWNRC-NH2; disulfide 1-10) | 0.8 ± 0.3 | > 100 | 0 | 0.7 ± 0.3 | 96 | 1 ± 0.3 | 97 | 0.9 ± 0.2 | 1.1 ± 0.4 | 2.8 ± 0.5 | 94 | 0.6 ± 0.3 | 94 | – | –
2 | C[C@@H]1NC(=O)[C@H](Cc2c[nH]c3ccccc23)NC(=O)[C@H](CCCNC(=N)N)NC(=O)[C@H](CCCNC(=N)N)NC(=O)[C@@H](N)CSSC[C@@H](C(N)=O)NC(=O)[C@H](CCCNC(=N)N)NC(=O)[C@H](CC(N)=O)NC(=O)[C@H](Cc2c[nH]c3ccccc23)NC(=O)[C@H](CCC(=O)O)NC1=O [PnCS1[R6E], CRRWAEWNRC ^*] (H-CRRWAEWNRC-NH2; disulfide 1-10) | > 100 | > 100 | 0 | > 100 | 41 | > 100 | 49 | > 100 | > 100 | > 100 | 19 | > 100 | 0 | > 100 | –
3 | C[C@@H]1NC(=O)[C@H](Cc2c[nH]c3ccccc23)NC(=O)[C@H](CCCNC(=N)N)NC(=O)[C@H](CCCNC(=N)N)NC(=O)[C@@H](N)CSSC[C@@H](C(N)=O)NC(=O)[C@H](CCCNC(=N)N)NC(=O)[C@H](CC(N)=O)NC(=O)[C@H](Cc2c[nH]c3ccccc23)NC(=O)[C@H](CCCCN)NC1=O [PnCS1[R6K], CRRWAKWNRC ^*] (H-CRRWAKWNRC-NH2; disulfide 1-10) | – | > 100 | 0 | 0.9 ± 0.3 | 88 | 8.7 ± 2.4 | 67 | – | – | 3.3 ± 1.5 | 89 | 0.6 ± 0.4 | 94 | – | –
4 | C[C@@H]1NC(=O)[C@H](CC(N)=O)NC(=O)[C@H](Cc2c[nH]c3ccccc23)NC(=O)[C@H](CCCNC(=N)N)NC(=O)[C@H](C)NC(=O)[C@H](Cc2c[nH]c3ccccc23)NC(=O)[C@H](CCCNC(=N)N)NC(=O)[C@H](CCCNC(=N)N)NC(=O)[C@@H](N)CSSC[C@@H](C(N)=O)NC1=O [PnCS1[R9A], CRRWARWNAC ^*] (H-CRRWARWNAC-NH2; disulfide 1-10) | – | > 100 | 0 | 0.9 ± 0.4 | 79 | 6.7 ± 1.2 | 80 | – | – | 9.2 ± 4.6 | 72 | 1.1 ± 0.3 | 86 | – | –
5 | C[C@@H]1NC(=O)[C@H](Cc2c[nH]c3ccccc23)NC(=O)[C@H](CCCNC(=N)N)NC(=O)[C@H](CCCNC(=N)N)NC(=O)[C@@H](N)CSSC[C@@H](C(N)=O)NC(=O)[C@H](CCC(=O)O)NC(=O)[C@H](CC(N)=O)NC(=O)[C@H](Cc2c[nH]c3ccccc23)NC(=O)[C@H](CCCNC(=N)N)NC1=O [PnCS1[R9E], CRRWARWNEC ^*] (H-CRRWARWNEC-NH2; disulfide 1-10) | – | > 100 | 0 | > 100 | 11 | > 100 | 49 | – | – | > 100 | 40 | > 100 | 0 | – | –
6 | C[C@@H]1NC(=O)[C@H](Cc2c[nH]c3ccccc23)NC(=O)[C@H](CCCNC(=N)N)NC(=O)[C@H](CCCNC(=N)N)NC(=O)[C@@H](N)CSSC[C@@H](C(N)=O)NC(=O)[C@H](CCCCN)NC(=O)[C@H](CC(N)=O)NC(=O)[C@H](Cc2c[nH]c3ccccc23)NC(=O)[C@H](CCCNC(=N)N)NC1=O [PnCS1[R9K], CRRWARWNKC ^*] (H-CRRWARWNKC-NH2; disulfide 1-10) | – | > 100 | 0 | 6.7 ± 0.8 | 72 | 10.2 ± 4.3 | 62 | – | – | 9.2 ± 0.6 | 67 | 6.1 ± 2.1 | 66 | – | –
7 | C[C@@H]1NC(=O)[C@H](C)NC(=O)[C@H](CCCNC(=N)N)NC(=O)[C@H](CCCNC(=N)N)NC(=O)[C@@H](N)CSSC[C@@H](C(N)=O)NC(=O)[C@H](CCCNC(=N)N)NC(=O)[C@H](CC(N)=O)NC(=O)[C@H](Cc2c[nH]c3ccccc23)NC(=O)[C@H](CCCNC(=N)N)NC1=O [PnCS1[W4A], CRRAARWNRC ^*] (H-CRRAARWNRC-NH2; disulfide 1-10) | – | > 100 | 0 | 1.2 ± 0.3 | 76 | 0.8 ± 0.3 | 89 | – | – | 3.4 ± 0.2 | 82 | 0.7 ± 0.3 | 95 | – | –
8 | C[C@@H]1NC(=O)[C@H](CCC(=O)O)NC(=O)[C@H](CCCNC(=N)N)NC(=O)[C@H](CCCNC(=N)N)NC(=O)[C@@H](N)CSSC[C@@H](C(N)=O)NC(=O)[C@H](CCCNC(=N)N)NC(=O)[C@H](CC(N)=O)NC(=O)[C@H](Cc2c[nH]c3ccccc23)NC(=O)[C@H](CCCNC(=N)N)NC1=O [PnCS1[W4E], CRREARWNRC ^*] (H-CRREARWNRC-NH2; disulfide 1-10) | – | > 100 | 0 | 14.8 ± 3.9 | 67 | 13.2 ± 5.2 | 72 | – | – | > 100 | 34 | 12.8 ± 4.1 | 59 | – | –
9 | C[C@@H]1NC(=O)[C@H](CCCCN)NC(=O)[C@H](CCCNC(=N)N)NC(=O)[C@H](CCCNC(=N)N)NC(=O)[C@@H](N)CSSC[C@@H](C(N)=O)NC(=O)[C@H](CCCNC(=N)N)NC(=O)[C@H](CC(N)=O)NC(=O)[C@H](Cc2c[nH]c3ccccc23)NC(=O)[C@H](CCCNC(=N)N)NC1=O [PnCS1[W4K], CRRKARWNRC ^*] (H-CRRKARWNRC-NH2; disulfide 1-10) | 0.4 ± 0.2 | > 100 | 0 | 0.7 ± 0.4 | 92 | 0.5 ± 0.4 | 75 | 7.4 ± 0.5 | 1.3 ± 0.4 | 2.7 ± 0.5 | 89 | 0.7 ± 0.4 | 94 | – | –
10 | C[C@@H]1NC(=O)[C@H](CCCNC(=N)N)NC(=O)[C@H](C)NC(=O)[C@H](Cc2c[nH]c3ccccc23)NC(=O)[C@H](CCCNC(=N)N)NC(=O)[C@H](CCCNC(=N)N)NC(=O)[C@@H](N)CSSC[C@@H](C(N)=O)NC(=O)[C@H](CCCNC(=N)N)NC(=O)[C@H](CC(N)=O)NC1=O [PnCS1[W7A], CRRWARANRC ^*] (H-CRRWARANRC-NH2; disulfide 1-10) | – | > 100 | 0 | 11.4 ± 3.6 | 57 | 0.8 ± 0.3 | 92 | – | – | 6.8 ± 1.3 | 78 | 1.1 ± 0.4 | > 95 | – | 96
11 | C[C@@H]1NC(=O)[C@H](Cc2c[nH]c3ccccc23)NC(=O)[C@H](CCCNC(=N)N)NC(=O)[C@H](CCCNC(=N)N)NC(=O)[C@@H](N)CSSC[C@@H](C(N)=O)NC(=O)[C@H](CCCNC(=N)N)NC(=O)[C@H](CC(N)=O)NC(=O)[C@H](CCC(=O)O)NC(=O)[C@H](CCCNC(=N)N)NC1=O [PnCS1[W7E], CRRWARENRC ^*] (H-CRRWARENRC-NH2; disulfide 1-10) | – | > 100 | 0 | > 100 | 27 | > 100 | 21 | – | – | > 100 | 33 | > 100 | 42 | – | –
12 | C[C@@H]1NC(=O)[C@H](Cc2c[nH]c3ccccc23)NC(=O)[C@H](CCCNC(=N)N)NC(=O)[C@H](CCCNC(=N)N)NC(=O)[C@@H](N)CSSC[C@@H](C(N)=O)NC(=O)[C@H](CCCNC(=N)N)NC(=O)[C@H](CC(N)=O)NC(=O)[C@H](CCCCN)NC(=O)[C@H](CCCNC(=N)N)NC1=O [PnCS1[W7K], CRRWARKNRC ^*] (H-CRRWARKNRC-NH2; disulfide 1-10) | – | > 100 | 0 | 8.2 ± 0.6 | 82 | 2.8 ± 0.5 | 71 | – | – | 3 ± 0.7 | 90 | 1.7 ± 0.5 | 87 | – | –
